Assay results taken from a compilation of properties of binary mixtures (doi:10.1021/acs.jced.0c00728).

Test: xn = mol fraction of the nth substance listed
Conditions: 100 kPa

CC[n+]1ccn(C)c1.F[B-](F)(F)F + CCC(=O)O
x1 = 1
Conditions	speed of sound [m/s]
303.15 K	1618
313.15 K	1595
333.15 K	1550

CCC(=O)O + CC[n+]1ccn(C)c1.F[B-](F)(F)F
speed of sound [m/s]
Conditions	293.15 K	303.15 K	313.15 K	323.15 K	333.15 K
x2 = 0	1171	1134	–	1060	1025
x2 = 0.0497	1173	1145	1111	1080	1054
x2 = 0.0888	1213	1187	1160	1130	1105
x2 = 0.1876	–	1332	1313	1291	1270
x2 = 0.2982	1463	1442	–	1396	1376
x2 = 0.3836	1496	–	1456	–	1415
x2 = 0.4908	–	1500	–	1457	–
x2 = 0.5907	–	1521	1496	–	1463
x2 = 0.6891	–	1548	1524	1501	1480
x2 = 0.78	1593	1572	1549	1525	1506
x2 = 0.8899	1617	1593	1571	–	1525
x2 = 0.9453	1629	1607	1584	–	–
